Data taken from US20210278408A1, “METHODS OF TREATMENT OF CANCER WITH SUBSTITUTED PYRROLE AND PYRAZOLE COMPOUNDS AND DIAGNOSIS OF CANCERS SUSCEPTIBLE TO TREATMENT WITH SUBSTITUTED PYRROLE AND PYRAZOLE COMPOUNDS” (Bantam Pharmaceutical, LLC, priority 2018, published 2021).
Read-outs that look alike come from different tables or passages of the source.

Tested on: 407 cancer cell lines
Assay: Cell viability of cancer cell lines (IC50), CellTiter-Glo Viability Assay, 96 h
Format: cell-based
Settings: for IC50: read-out: Absolute IC50
Method: Viability was determined by using the 50% inhibitory concentration (IC50) as determined with the CellTiter-Glo® Viability Assay (Promega).
Experiments were initiated by first thawing and equilibrating the CellTiter-Glo® Buffer to room temperature. The lyophilized CellTiter-Glo® Substrate was also equilibrated to room temperature. The lyophilized substrate was reconstituted with the CellTiter-Glo® buffer to form the CellTiter-Glo® Reagent.
Cells were harvested during the logarithmic growth period, counted, and the cell concentration adjusted to 4.44×10^4 cells/mL using culture medium.
Cells were allowed to grow overnight and the following day, the TO reading was obtained by adding 10 μL culture medium to each well of Plate A. The plate was allowed to equilibrate at room temperature for thirty minutes, after which 50 μL CellTiter-Glo® reagent was added to each well. The contents were mixed for 5 min on an orbital shaker to induce cell lysis. Plates were incubated for 20 minutes to stabilize the luminescent signal and the TO luminescence recorded.
Test plate B was incubated for 96 h in the humidified incubator at 37° C. with 5% CO2.
Following the incubation, the plate was equilibrated at room temperature for thirty minutes. CellTiter-Glo® (50 μL) was added to each well of the plate and contents mixed for five minutes on an orbital shaker to induce cell lysis. The luminescent signal was allowed to stabilize at room temperature for 20 minutes and the luminescence recorded.
IC50 (EC50) was calculated using a dose-response curve, fitted using a nonlinear regression model with a sigmoidal dose response. Survival rate was calculated using the formula:
The Surviving rate (%)=(LumTest article−LumMedium control)/(LumNon-treated−LumMedium control)×100%.
Absolute IC50 (EC50) was calculated according to the dose-response curve generated by the statistical software (GraphPad Prism 5.0).

N.N.[Cl][Pt][Cl] [Cisplatin, reference compound]
IC50 (Raji cells, 96 h): 2070 nM
IC50 (Ramos cells, 96 h): 640 nM
IC50 (Reh): 430 nM
IC50 (SCC-4, 96 h): 2960 nM
IC50 (SCC-9 cells, 96 h): 8370 nM
IC50 (SCC-15 cells, 96 h): 3300 nM
IC50 (SCH cells, 96 h): 6820 nM
IC50 (SF268 cells, 96 h): 1430 nM
IC50 (SF-126 cells, 96 h): 1950 nM
IC50 (SF-763): 7560 nM
IC50 (SH-SY5Y): 270 nM
IC50 (SJSA-1): 3290 nM
IC50 (SK-BR-3): 600 nM
IC50 (SK-CO-1 cells, 96 h): 210 nM
IC50 (SK-HEP-1 cells, 96 h): 13200 nM
IC50 (SK-LU-1 cells, 96 h): 1380 nM
IC50 (SK-MEL-5, 96 h): 3200 nM
IC50 (SK-MEL-28, 96 h): 5620 nM
IC50 (SK-MES-1): 2630 nM
IC50 (SK-N-FI cells, 96 h): 1340 nM
IC50 (SK-N-SH): 360 nM
IC50 (SK-NEP-1 cells, 96 h): 600 nM
IC50 (SK-OV-3 cells, 96 h): 2880 nM
IC50 (SK-UT-1 cells, 96 h): 6940 nM
IC50 (SNU-1 cells, 96 h): 2150 nM
IC50 (SNU-5, 96 h): 2100 nM
IC50 (SNU-81): 3700 nM
IC50 (SNU-216 cells, 96 h): 6070 nM
IC50 (SNU-354): 13800 nM
% inhibition at top conc. (SNU-368): 81.47%
IC50 (SNU-368): 20200 nM
IC50 (SNU-387): 43400 nM
IC50 (SNU-398): 4900 nM
IC50 (SNU-423 cells, 96 h): 6060 nM
IC50 (SNU-449): 3520 nM
IC50 (SNU-475 cells, 96 h): 520 nM
IC50 (SNU-484 cells, 96 h): 4960 nM
IC50 (SNU-601 cells, 96 h): 600 nM
IC50 (SNU-620 cells, 96 h): 7030 nM
IC50 (SNU-638 cells, 96 h): 4480 nM
IC50 (SNU-668 cells, 96 h): 4960 nM
IC50 (SNU-719 cells, 96 h): 13300 nM
IC50 (SNU-739): 810 nM
IC50 (SNU-761 cells, 96 h): 1390 nM
IC50 (SNU-2535 cells, 96 h): 16300 nM
IC50 (SNU-C2A): 1770 nM
IC50 (SNU-C5 cells, 96 h): 2360 nM
IC50 (ST486 cells, 96 h): 260 nM
IC50 (SU-DHL-1): 280 nM
IC50 (SU-DHL-4): 340 nM
IC50 (SU-DHL-5 cells, 96 h): 500 nM
IC50 (SU-DHL-6 cells, 96 h): 1850 nM
IC50 (SU-DHL-8): 700 nM
IC50 (SUM159PT): 3150 nM
IC50 (SUP-B15): 1390 nM
IC50 (SW48 cells, 96 h): 1270 nM
IC50 (SW 156 cells, 96 h): 1030 nM
IC50 (SW480): 1820 nM
IC50 (SW579 cells, 96 h): 1410 nM
IC50 (SW626 cells, 96 h): 3970 nM
IC50 (SW684 cells, 96 h): 33400 nM
% inhibition at top conc. (SW756 cells, 96 h): 84.79%
IC50 (SW780 cells, 96 h): 1980 nM
IC50 (SW837 cells, 96 h): 4210 nM
IC50 (SW948 cells, 96 h): 17800 nM
IC50 (SW1116 cells, 96 h): 7940 nM
% inhibition at top conc. (SW1271): 85.04%
IC50 (SW1271): 17100 nM
IC50 (SW1417 cells, 96 h): 6910 nM
IC50 (SW1990): 850 nM
IC50 (SW-13): 1380 nM
IC50 (SiHa cells, 96 h): 10500 nM
IC50 (T24 cells, 96 h): 1040 nM
IC50 (T47D): 5250 nM
IC50 (T84): 3170 nM
IC50 (TF-1): 5110 nM
IC50 (TJ905 cells, 96 h): 9460 nM
IC50 (TT cells, 96 h): 28100 nM
IC50 (Toledo cells, 96 h): 490 nM
IC50 (U251 cells, 96 h): 3520 nM
IC50 (U266B1): 4530 nM
IC50 (U-87 MG cells, 96 h): 4050 nM
IC50 (U-2932 cells, 96 h): 790 nM
IC50 (UACC-812 cells, 96 h): 4610 nM
IC50 (UO.31 cells, 96 h): 4400 nM
IC50 (WM-266-4 cells, 96 h): 3120 nM
IC50 (WSU-DLCL2 cells, 96 h): 1370 nM
IC50 (WSU-NHL cells, 96 h): 230 nM
IC50 (Y-79 cells, 96 h): 4560 nM
IC50 (YCC-1 cells, 96 h): 6620 nM
IC50 (YCC-2 cells, 96 h): 720 nM
IC50 (YCC-6 cells, 96 h): 2620 nM
IC50 (YCC-10, 96 h): 690 nM
IC50 (YCC-11 cells, 96 h): 620 nM
IC50 (Z-138): 1020 nM
IC50 (ZR-75-1): 5730 nM
IC50 (ZR-75-30, 96 h): 2990 nM
